{"source": "patent US20250179167A1", "about": "“IL-6 INHIBITOR AS TREATMENT FOR NEPHROPATHY” (YALE UNIVERSITY, priority 2022, published 2025)", "key": {"[1]": {"test_system": "diabetic CD-1 mice", "experiment": "FA modulators (fenofibrate, etomoxir, C75, simvastatin) in diabetic CD-1 mice", "assay_type": "in vivo, mouse", "conditions": "for CPT1a level / FAO, as measured by [14CO2] release / β-catenin level / fibrogenic phenotype / level of fibrosis / level of GR protein in CD31 positive cells: diabetic CD-1 mice; for fibrogenic phenotype / level of fibrosis / level of GR protein in CD31 positive cells: treated for 4 weeks; for fibronectin mRNA level / αSMA mRNA level: diabetic kidneys, CD-1 mice", "experimental": "FIG. 33A-33F show endothelial GR is essential for the action of anti-dyslipidemic drugs in the diabetic kidney disease. (FIG. 33A) Masson trichrome (MTS) and Sirius red staining in kidneys of control, diabetic, fenofibrate-, etomoxir-, C75- and simvastatin-treated diabetic mice. Representative images (original magnification 300×) are shown. Relative area of fibrosis (%) and relative collagen deposition (%) were measured using the ImageJ program. n=6 biologically independent mice/group combined from two experiments were analyzed. Scale bar 50 μm. (FIG. 33B) Co-immunolabeling of GR/CD31 was analyzed by fluorescence microscopy. FITC-labeled GR, rhodamine-labeled CD31 and DAPI were used. Representative images are shown; original magnification 300×. Scale bar 50 μm. n=6 biologically independent mice/group combined from two experiments were analyzed. (FIG. 33C) PCR gene analiof fibronectin and α-SMA in the kidneys. 18S was used as an internal control. n=6 biologically independent mice/group. (FIG. 33D) Blood glucose measurements in control, diabetic, fenofibrate-, etomoxir-, C75- and simvastatin-treated diabetic mice. n=6 biologically independent mice/group. (FIG. 33E) Radiolabeled [^14C]palmitate oxidation and [^14CO2]release were measured. CPM of each sample was counted. Endothelial cells isolated from six biologically independent mice were evaluated. Three independent experiments were analyzed. Data are mean±SEM (FIG. 33F) Immunohistochemical analysis of CPT1a and β-catenin was analyzed in the kidneys of control, diabetic, fenofibrate-, C75-, etomoxir- and simvastatin-treated diabetic mice. n=6 biologically independent mice/group. Representative images are shown; original magnification 400×. Scale bar 50 μm. Data are mean SEM. In all panels, one-way Anova with Tukey multiple comparison post hoc test was used to calculate statistical significance. Significance—*p<0.05, **p<0.01, ***p<0.001. Con: control, DM: diabetic, feno: fenofibrate.\nA single IP dose of 200 mg/kg STZ was used to induce diabetes in CD-1 mice.\nIn one experiment, male mice were randomized to one of 4 groups sixteen weeks after induction of diabetes: (i) untreated, (ii) fenofibrate (100 mg/kg), (iii) simvastatin (40 mg/kg), or (iv) Wnt inhibitor (LGK974; 5 mg/kg). In each case, mice were treated for 4 weeks and compared to untreated diabetic CD-1 mice. In another experiment, male diabetic CD-1 mice were randomized into one of 3 groups: (i) untreated (vehicle), (ii) etomoxir (20 mg/kg) or (iii) C75 (15 mg/kg); in each case mice were treated (IP) three times/week for a total 4 weeks.\nMorphological Evaluation. A point-counting method was utilized to evaluate the relative area of the mesangial matrix. The inventors analyzed PAS-stained glomeruli from each mouse using a digital microscope screen grid containing 540 (27×20) points. Masson's trichrome-stained images were evaluated by ImageJ software, and the fibrotic areas were estimated.\nSirius red staining. Deparaffinized sections were incubated with picrosirius red solution for 1 hour at room temperature. The slides were washed twice with acetic acid solution for 30 seconds per wash. The slides were then dehydrated in absolute alcohol three times, cleared in xylene, and mounted with a synthetic resin. Sirius red staining was analyzed using ImageJ software, and fibrotic areas were quantified.\nImmunohistochemistry. Paraffin-embedded kidney sections (5 μm thick) were deparaffinized and rehydrated (2 min in xylene, four times; 1 min in 100% ethanol, twice; 1 min in 95% ethanol; 45 s in 70% ethanol; and 1 min in distilled water), and the antigen was retrieved in a 10 mM citrate buffer pH 6 at 98° C. for 60 min. To block the endogenous peroxidase, all sections were incubated in 0.3% hydrogen peroxide for 10 min. The immunohistochemistry was performed using a Vectastain ABC Kit (Vector Laboratories, Burlingame, CA). Mouse anti-β-catenin antibody (1:100) and CPT1a (Abnova; H00001374-DO1P; 1:100) antibodies were used. […]"}, "[2]": {"test_system": "control littermates and GR^ECKO mice", "experiment": "Etomoxir and C75 in non-diabetic and diabetic control littermates and GR^ECKO mice", "assay_type": "in vivo, mouse", "conditions": "for level of renal fibrosis: nondiabetic control and GR^ECKO mice", "experimental": "FIGS. 6A-6E show metabolic reprogramming by loss of endothelial GR loss worsens diabetic kidney disease. (FIG. 6A) Radiolabeled ^14C-palmitate uptake analysis in isolated endothelial cells from kidneys of nondiabetic and diabetic control, GR^ECKO Apoe^−/− and DKO mice. CPM of each sample were counted. Data were normalized to μg protein. Fold activity is presented. Endothelial cells isolated and cultured from six biologically independent mice/group were performed in triplicate and analyzed for ^14C-palmitate uptake analysis. Data are mean±SEM. (FIG. 6B) Radiolabeled [^14C]palmitate oxidation and [^14CO2]release were measured in isolated endothelial cells from kidneys of nondiabetic and diabetic control, GR^ECKO Apoe^−/− and DKO mice. CPM of each sample was counted. Data were normalized to μg protein. Fold activity is presented. Endothelial cells isolated and cultured from six biologically independent mice/group were performed in triplicate and analyzed for ^14C-palmitate uptake analysis. Data are mean±SEM. (FIG. 6C) Body weight, blood glucose, and kidney weight/body weight were measured at the end of these experiments. N=6 biologically independent mice from two experiments. Ex vivo radiolabeled [^14C]palmitate oxidation and [^14CO2]release were measured in kidneys. CPM of each sample was counted. Isolated endothelial cells from five biologically independent mice/group were analyzed in triplicate. Data are mean±SEM. (FIG. 6D) Masson trichrome, Sirius red and PAS staining were analyzed in the kidneys of control, etomoxir- and C75-treated diabetic mice. Representative images are shown; original magnification 300×. Relative area of fibrosis (%) and relative collagen deposition (%) were measured using the ImageJ program. N=8 biologically independent mice per/group from three independent experiments were analyzed. Scale bar 50 μm. Data are mean±SEM. (FIG. 6E) Immunohistochemical analysis of CPT1a and β-catenin. Representative images are shown; original magnification 300×. Scale bar 50 μm. N=6 biologically independent mice per group from three independent experiments. For all panels one-way ANOVA with Tukey post-test was used for analysis of statistical significance. Significance—*p<0.05, **p<0.01, ***p<0.001.\nBody weight, blood glucose, and kidney/body weight ratio and fatty acid oxidation as represented by [^14CO2]release are shown. [^14C]palmitate was used as substrate and CPM counts were normalized by protein. n=6 biologically independent mice/group. Data are mean±SEM. One-way Anova with Tukey multiple comparison post hoc test was used to calculate statistical significance. Significance—*p<0.05.\nMasson trichrome staining (upper panel) and Sirius red (lower panels) in etomoxir- and C75-treated non-diabetic control and GR^ECKO mice. Etomoxir (20 mg/kg) and C75 (15 mg/kg) were dosed (IP) three times per week for 3 weeks in GR^ECKO and control littermates. Representative images are shown; original magnification 400×. Area of fibrosis (%) and relative collage deposition (%) in n=6 biologically independent mice/group were combined from two independent experiments. Scale bar 50 μm. Data are mean±SEM. One-way Anova with Tukey multiple comparison post hoc test was used to calculate statistical significance. Significance-**p<0.01.\nAnimal Experimentation. All experiments were performed according to a protocol approved by the Institutional Animal Care and Use Committee at the Yale University School of Medicine and were in accordance with the National Institute of Health (NIH) Guidelines for the Care of Laboratory Animals Mice were housed at an ambient temperature of 68-79° F. with a humidity that ranged between 30%-70%. They were exposed to 12-h light-dark cycles Mice lacking the endothelial glucocorticoid receptor (GR) (known as GR^ECKO) and those lacking this receptor on the Apoe null background (DKO) were generated as previously described^25; these mice were on the C57BL/6 background. […]"}, "[3]": {"conditions": "kidney ECs from diabetic GR^ECKO mice"}, "[4]": {"conditions": "kidney ECs, non-diabetic control littermates"}, "[5]": {"conditions": "kidneys of diabetic GR^ECKO mice"}, "[6]": {"conditions": "kidneys of diabetic control mice"}}, "data": [{"smiles": "CCOC(=O)[C@@]1(CCCCCCOc2ccc(Cl)cc2)CO1", "note": "[etomoxir]", "values": [{"measurement": "CPT1a level", "setting": "[1]", "result": "significant suppression"}, {"measurement": "FAO, as measured by [14CO2] release", "setting": "[1]", "result": "significant suppression"}, {"measurement": "β-catenin level", "setting": "[1]", "result": "induced the expression of β-catenin"}, {"measurement": "fibrogenic phenotype / level of fibrosis", "setting": "[1]", "result": "exacerbated the fibrosis"}, {"measurement": "level of GR protein in CD31 positive cells", "setting": "[1]", "result": "suppressed it"}, {"measurement": "fibronectin mRNA level", "setting": "[1]", "result": "upregulated"}, {"measurement": "αSMA mRNA level", "setting": "[1]", "result": "upregulated"}, {"measurement": "expression of CPT1a (immunohistochemical analysis, FIG. 6E)", "setting": "[2]; diabetic GR^ECKO mice", "result": "A similar pattern was observed"}, {"measurement": "expression of β-catenin (immunohistochemical analysis, FIG. 6E)", "setting": "[2]; diabetic GR^ECKO mice", "result": "A similar pattern was observed"}, {"measurement": "expression of CPT1a (immunohistochemical analysis, FIG. 6E)", "setting": "[2]; diabetic control mice", "result": "decreased expression of CPT1a"}, {"measurement": "expression of β-catenin (immunohistochemical analysis, FIG. 6E)", "setting": "[2]; diabetic control mice", "result": "increasing expression of β-catenin"}, {"measurement": "FAO", "setting": "[2]; [3]", "result": "significant suppression of FAO"}, {"measurement": "FAO", "setting": "[2]; [4]", "result": "significant suppression of FAO"}, {"measurement": "CPT1a level", "setting": "[2]; [5]", "result": "suppressed the CPT1a level"}, {"measurement": "level of β-catenin", "setting": "[2]; [5]", "result": "increased the expression level of β-catenin"}, {"measurement": "renal fibrogenic phenotype", "setting": "[2]; [5]", "result": "accelerated the renal fibrogenic phenotype"}, {"measurement": "CPT1a level", "setting": "[2]; [6]", "result": "suppressed the CPT1a level"}, {"measurement": "level of β-catenin", "setting": "[2]; [6]", "result": "increased the expression level of β-catenin"}, {"measurement": "renal fibrogenic phenotype", "setting": "[2]; [6]", "result": "accelerated the renal fibrogenic phenotype"}, {"measurement": "level of renal fibrosis", "setting": "[2]", "result": "slightly increased the level of renal fibrosis"}]}, {"smiles": "C=C1C(=O)OC(CCCCCCCC)C1C(=O)O", "note": "(stereo not shown) [C75]", "values": [{"measurement": "CPT1a level", "setting": "[1]", "result": "increased the expression of CPT1a"}, {"measurement": "FAO, as measured by [14CO2] release", "setting": "[1]", "result": "increased the level of FAO"}, {"measurement": "β-catenin level", "setting": "[1]", "result": "suppressed the level of β-catenin"}, {"measurement": "fibrogenic phenotype / level of fibrosis", "setting": "[1]", "result": "ameliorated the fibrogenic phenotype"}, {"measurement": "level of GR protein in CD31 positive cells", "setting": "[1]", "result": "restored"}, {"measurement": "fibronectin mRNA level", "setting": "[1]", "result": "downregulated"}, {"measurement": "αSMA mRNA level", "setting": "[1]", "result": "downregulated"}, {"measurement": "expression of CPT1a (immunohistochemical analysis, FIG. 6E)", "setting": "[2]; diabetic GR^ECKO mice", "result": "A similar pattern was observed"}, {"measurement": "expression of β-catenin (immunohistochemical analysis, FIG. 6E)", "setting": "[2]; diabetic GR^ECKO mice", "result": "A similar pattern was observed"}, {"measurement": "expression of CPT1a (immunohistochemical analysis, FIG. 6E)", "setting": "[2]; diabetic control mice", "result": "substantially reverse"}, {"measurement": "expression of β-catenin (immunohistochemical analysis, FIG. 6E)", "setting": "[2]; diabetic control mice", "result": "substantially reverse"}, {"measurement": "FAO", "setting": "[2]; [3]", "result": "unable to rescue"}, {"measurement": "FAO", "setting": "[2]; [4]", "result": "restored FAO"}, {"measurement": "CPT1a level", "setting": "[2]; [5]", "result": "also observed in the GR^ECKO mice, though to a lesser extent"}, {"measurement": "level of β-catenin", "setting": "[2]; [5]", "result": "also observed in the GR^ECKO mice, though to a lesser extent"}, {"measurement": "renal fibrogenic phenotype", "setting": "[2]; [5]", "result": "also observed in the GR^ECKO mice, though to a lesser extent"}, {"measurement": "CPT1a level", "setting": "[2]; [6]", "result": "restored CPT1a"}, {"measurement": "level of β-catenin", "setting": "[2]; [6]", "result": "completely diminished the level of β-catenin"}, {"measurement": "renal fibrogenic phenotype", "setting": "[2]; [6]", "result": "clearly abolished the renal fibrogenic phenotype"}, {"measurement": "level of renal fibrosis", "setting": "[2]", "result": "mitigated"}]}]}
